Columns and labels:
P2Y2 receptor = target: T1, P2Y2 receptor (Homo sapiens, UniProt P41231); experiment: Fura-2 intracellular calcium, FlexStation, native AD-MSCs; type: cell-based; settings: agonist; peak calcium response; […] °C, pH […] extracellular Ca2+; receptor assigned by antagonist
T1 construct: gene P2RY2; native endogenous receptor in primary human adipose-derived mesenchymal stromal cells (female donors)
Description: Fura-2 intracellular calcium, FlexStation, native AD-MSCs on P2Y2 receptor

P2Y6 receptor = target: T2, P2Y6 receptor (Homo sapiens, UniProt Q15077); settings: antagonist against […] ADP; peak magnitude; cells do not respond to UDP up to […]; […] °C, pH […]
T2 construct: gene P2RY6
T2 sequence (Q15077 whole entry): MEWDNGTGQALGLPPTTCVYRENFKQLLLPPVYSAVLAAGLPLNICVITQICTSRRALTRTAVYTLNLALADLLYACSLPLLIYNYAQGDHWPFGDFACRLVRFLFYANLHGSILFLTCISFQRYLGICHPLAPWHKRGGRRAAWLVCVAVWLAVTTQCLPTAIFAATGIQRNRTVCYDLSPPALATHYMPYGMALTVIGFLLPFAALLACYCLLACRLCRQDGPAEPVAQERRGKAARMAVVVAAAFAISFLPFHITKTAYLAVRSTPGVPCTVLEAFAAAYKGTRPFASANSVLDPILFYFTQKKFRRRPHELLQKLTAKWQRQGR

T1 sequence (P41231 whole entry): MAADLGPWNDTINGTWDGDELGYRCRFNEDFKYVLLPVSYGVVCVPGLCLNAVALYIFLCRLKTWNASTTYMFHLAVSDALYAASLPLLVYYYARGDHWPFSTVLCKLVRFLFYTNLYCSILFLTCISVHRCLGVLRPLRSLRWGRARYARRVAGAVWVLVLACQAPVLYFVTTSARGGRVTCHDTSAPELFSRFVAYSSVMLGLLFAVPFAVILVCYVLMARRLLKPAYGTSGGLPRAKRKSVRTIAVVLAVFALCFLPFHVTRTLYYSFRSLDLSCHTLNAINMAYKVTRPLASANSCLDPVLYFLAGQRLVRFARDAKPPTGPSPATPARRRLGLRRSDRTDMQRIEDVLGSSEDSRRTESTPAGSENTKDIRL

| Compound | EC50 (P2Y2 receptor) [nM] | IC50 (P2Y6 receptor) [nM] |
| --- | --- | --- |
| Nc1ncnc2c1ncn2[C@@H]1O[C@H](COP(=O)(O)OP(=O)(O)OP(=O)(O)O)[C@@H](O)[C@H]1O [ATP] | 2240 ± 1100 |  |
| O=c1ccn([C@@H]2O[C@H](COP(=O)(O)OP(=O)(O)OP(=O)(O)O)[C@@H](O)[C@H]2O)c(=O)[nH]1 [UTP] | 3240 ± 2800 |  |
| S=C=Nc1cccc(NC(=S)NCCCCNC(=S)Nc2cccc(N=C=S)c2)c1 [MRS2578] |  | 437 ± 133 |

Source: article PMC6298923, “P2Y2 and P2Y6 receptor activation elicits intracellular calcium responses in human adipose-derived mesenchymal stromal cells” (Purinergic Signalling, 2018)
